One assay addresses T1, human SCD1 (Homo sapiens, UniProt O00767).
T1 construct: expressed in transfected cells; host or cells: yeast strain with OLE1 deleted, plasmid-borne human SCD1 (selected in SD-Ura)
T1 sequence (O00767 1-359): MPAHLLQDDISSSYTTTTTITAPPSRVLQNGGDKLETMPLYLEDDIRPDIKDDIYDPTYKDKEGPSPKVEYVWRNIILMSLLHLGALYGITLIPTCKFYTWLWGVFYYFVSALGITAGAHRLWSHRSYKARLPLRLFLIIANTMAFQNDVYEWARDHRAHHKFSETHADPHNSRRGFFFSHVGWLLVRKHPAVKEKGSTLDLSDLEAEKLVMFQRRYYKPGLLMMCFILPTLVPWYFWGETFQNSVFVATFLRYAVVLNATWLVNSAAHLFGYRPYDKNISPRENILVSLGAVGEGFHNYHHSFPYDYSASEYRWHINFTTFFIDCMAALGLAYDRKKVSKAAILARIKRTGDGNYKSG
Kind of assay: Growth inhibition of yeast strain expressing human SCD1 as sole desaturase (OLE1 deleted), OD600 readout. Format: cell-based.

Another assay deals with T2, human SCD5 (Homo sapiens, UniProt Q86SK9).
T2 construct: expressed in transfected cells; host or cells: yeast strain with OLE1 deleted, plasmid-borne human SCD5 (selected in SD-Ura)
T2 sequence (Q86SK9 1-330): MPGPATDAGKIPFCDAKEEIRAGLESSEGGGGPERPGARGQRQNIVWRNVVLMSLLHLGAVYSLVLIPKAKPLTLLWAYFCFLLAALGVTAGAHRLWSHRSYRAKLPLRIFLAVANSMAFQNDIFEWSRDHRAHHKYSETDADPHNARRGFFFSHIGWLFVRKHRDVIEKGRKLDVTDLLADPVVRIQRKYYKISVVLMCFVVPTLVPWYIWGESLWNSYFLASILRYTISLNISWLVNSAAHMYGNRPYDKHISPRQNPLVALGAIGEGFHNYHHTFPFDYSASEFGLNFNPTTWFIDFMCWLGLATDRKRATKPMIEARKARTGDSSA
Nature of the assay: Growth inhibition of yeast strain expressing human SCD5 as sole desaturase (OLE1 deleted), OD600 readout. Format: cell-based.

[1] abbreviates: yeast strain expressing human SCD1 as sole desaturase, growth (OD600) after 40 h at 30° C., read-out: SCD1 IC50.
The mark [2] stands for this setting: yeast strain expressing human SCD5 as sole desaturase, growth (OD600) after 40 h at 30° C., read-out: SCD5 IC50.

Where two headings read alike, the source gives them in different places. A value given as a limit tells only on which side of the number the result lay.

As a reminder, the IC50 is the concentration needed to halve the response being measured.

As to `Cc1cc(C(=O)Nc2ccc(Cc3cc(F)cc(F)c3)cn2)cn(C)c1=O` [Compound 676], the IC50 came out at 0.083 µM on human SCD1 (setting [1]) and 0.01 µM on human SCD5 (setting [2]).

For `N#Cc1cc(Cl)cc(Cc2ccc(NC(=O)c3cnc(C#N)cn3)nc2)c1` [Compound 677], the IC50 was over 45 µM on human SCD1 (setting [1]) and 0.079 µM at human SCD5 (setting [2]).

Regarding `CNC(=O)c1ccnc(NC(=O)c2ccc(Oc3ccccc3Cl)cn2)c1` [Compound 678], the half-inhibitory concentration (IC50) was found to be 0.32 µM at human SCD1 (setting [1]) and 0.38 µM at human SCD5 (setting [2]).

With `Cc1cc(C(=O)Nc2ccc(Cc3ccc(F)c(F)c3)cn2)cn(C)c1=O` [Compound 679], the IC50 on human SCD1 (setting [1]) is 0.57 µM; on human SCD5 (setting [2]), 0.01 µM.

Consider `Cn1nc(C(=O)Nc2ccc(Cc3cc(F)cc(F)c3Cl)cn2)ccc1=O` [Compound 680], for which the results for the IC50 on human SCD1 (setting [1]) and at human SCD5 (setting [2]) were 2.7 µM and 0.025 µM, respectively.

Take `O=C(Nc1ccc(Cc2cccc(Cl)c2)cn1)c1nnc(C(F)(F)F)o1` [Compound 681]: the IC50 at human SCD1 (setting [1]) was over 45 µM; at human SCD5 (setting [2]), 2.1 µM.

For `O=C(NNC(=O)C(F)(F)F)C(=O)Nc1ccc(Cc2cccc(Cl)c2)cn1` [Compound 682], the IC50 at human SCD1 (setting [1]) was 0.1 µM; on human SCD5 (setting [2]), 0.2 µM.

On to `N#Cc1nc(C(=O)Nc2ccc(Cc3cc(F)cc(F)c3)cn2)co1` [Compound 683], for which the 50% inhibitory concentration (IC50) stood at 8.1 µM at human SCD1 (setting [1]) and 3.9 µM on human SCD5 (setting [2]).

As for `CN1N=C(C(=O)Nc2ccc(Cc3cccc(Cl)c3)cn2)CCC1=O` [Example 15, N-(5-(3-chlorobenzyl)pyridin-2-yl)-1-methyl-6-oxo-1,4,5,6-tetrahydropyridazine-3-carboxamide], the figures for the concentration for half-maximal inhibition (IC50) at human SCD1 (setting [1]) and at human SCD5 (setting [2]) were over 45 µM and 0.45 µM, respectively.

As to `CN1N=C(C(=O)Nc2ccc(Cc3cccc(C(F)(F)F)c3)cn2)CCC1=O` [Example 18, 1-methyl-6-oxo-N-(5-(3-(trifluoromethyl)benzyl)pyridin-2-yl)-1,4,5,6-tetrahydropyridazine-3-carboxamide], the 50% inhibitory concentration (IC50) at human SCD1 (setting [1]) was found to be 8.57 µM; on human SCD5 (setting [2]), 1.6 µM.

On to `CN1N=C(C(=O)Nc2ccc(Cc3ccc(Cl)c(Cl)c3)cn2)CCC1=O` [Example 20, N-(5-(3,4-dichlorobenzyl)pyridin-2-yl)-1-methyl-6-oxo-1,4,5,6-tetrahydropyridazine-3-carboxamide], for which the concentration for half-maximal inhibition (IC50) on human SCD1 (setting [1]) came to 0.22 µM; on human SCD5 (setting [2]), 0.03 µM.

For the molecule `CN1N=C(C(=O)Nc2ccc(Cc3ccc(Cl)s3)cn2)CCC1=O` [Example 21, N-(5-((5-chlorothiophen-2-yl)methyl)pyridin-2-yl)-1-methyl-6-oxo-1,4,5,6-tetrahydropyridazine-3-carboxamide], the IC50 on human SCD1 (setting [1]) is over 45 µM; at human SCD5 (setting [2]), 1.78 µM.

For `CN1N=C(C(=O)Nc2ccc(Cc3cccc(C4CC4)c3)cn2)CCC1=O` [Example 23, N-(5-(3-cyclopropylbenzyl)pyridin-2-yl)-1-methyl-6-oxo-1,4,5,6-tetrahydropyridazine-3-carboxamide], the IC50 on human SCD1 (setting [1]) was over 45 µM; on human SCD5 (setting [2]), 2.49 µM.

As for `Cn1cc(C(=O)Nc2ccc(Cc3cc(F)cc(C#N)c3)cn2)ccc1=O` [Example 25, N-(5-(3-cyano-5-fluorobenzyl)pyridin-2-yl)-1-methyl-6-oxo-1,6-dihydropyridine-3-carboxamide], the IC50 against human SCD1 (SCD1 IC50) is 4.03 µM; against human SCD5 (SCD5 IC50), 0.53 µM.

Turning to `CN1N=C(C(=O)Nc2ccc(Cc3cccc(Br)c3)cn2)CCC1=O` [Example 27, N-(5-(3-bromobenzyl)pyridin-2-yl)-1-methyl-6-oxo-1,4,5,6-tetrahydropyridazine-3-carboxamide], the half-inhibitory concentration (IC50) on human SCD1 (setting [1]) is over 45 µM; at human SCD5 (setting [2]), 0.39 µM.

In the case of `CN1N=C(C(=O)Nc2ccc(Cc3cc(F)cc(Cl)c3)cn2)CCC1=O` [Example 28, N-(5-(3-chloro-5-fluorobenzyl)pyridin-2-yl)-1-methyl-6-oxo-1,4,5,6-tetrahydropyridazine-3-carboxamide], the half-maximal inhibitory concentration (IC50) amounted to 1.95 µM on human SCD1 (setting [1]) and 0.02 µM on human SCD5 (setting [2]).

Source of the values: US20230078764A1 (Yumanity Therapeutics, Inc., priority 2019, published 2023).
